According to the supplement of paper PMC10307832:

Tests used:
Assay in all cases: relative viability (nuclei count vs DMSO), 5 days (fraction); higher = more cells survive
[1] = system: NCI-H1623
Outline: (§1)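 Values are medians from duplicate plates. Each reflects relative viability, defined as the nuclei count of treated wells over that of vehicle wells. Lung cancer cell lines in 1536-well plates were pin-tool dosed one day after seeding with one drug alone or with a fixed anchor-drug dose plus five library-drug doses (not always all listed) in √10 steps, then fixed, stained and imaged at 4× after 5 days.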

[2] = system: NCI-H2009
Outline: as §1

[3] = system: A-427
Outline: as §1

[4] = system: NCI-H1734
Outline: as §1

[5] = system: A549
Outline: as §1

[6] = system: UMC-11
Outline: as §1

[7] = system: NCI-H1650
Outline: as §1

[8] = system: CAL-12T
Outline: as §1

[9] = system: LK-2
Outline: as §1

O=c1cc(-c2cccc3c2Sc2ccccc2S3)oc(N2CCOCC2)c1 + N=C(N)NC(=N)NCCc1ccccc1 [Phenformin] (partner 250 µM)
relative viability ([1]; first compound 0.08 µM): 0.603 | relative viability ([1]; first compound 0.253 µM): 0.68 | relative viability ([1]; first compound 0.8 µM): 0.593 | relative viability ([1]; first compound 2.53 µM): 0.535 | relative viability ([1]; first compound 8 µM): 0.576 | relative viability ([2]; first compound 0.08 µM): 0.481 | relative viability ([2]; first compound 0.253 µM): 0.545 | relative viability ([2]; first compound 0.8 µM): 0.522 | relative viability ([2]; first compound 2.53 µM): 0.445 | relative viability ([2]; first compound 8 µM): 0.446 | relative viability ([3]; first compound 0.08 µM): 0.282 | relative viability ([3]; first compound 0.253 µM): 0.313 | relative viability ([3]; first compound 0.8 µM): 0.376 | relative viability ([3]; first compound 8 µM): 0.35 | relative viability ([4]; first compound 0.08 µM): 0.36 | relative viability ([4]; first compound 0.253 µM): 0.45 | relative viability ([4]; first compound 0.8 µM): 0.417 | relative viability ([4]; first compound 8 µM): 0.436 | relative viability ([5]; first compound 0.08 µM): 0.202 | relative viability ([5]; first compound 0.253 µM): 0.097 | relative viability ([5]; first compound 0.8 µM): 0.315 | relative viability ([5]; first compound 2.53 µM): 0.129 | relative viability ([5]; first compound 8 µM): 0.28 | relative viability ([6]; first compound 0.08 µM): 0.322 | relative viability ([6]; first compound 0.253 µM): 0.34 | relative viability ([6]; first compound 0.8 µM): 0.372 | relative viability ([6]; first compound 2.53 µM): 0.29 | relative viability ([6]; first compound 8 µM): 0.324 | relative viability ([7]; first compound 0.08 µM): 0.379 | relative viability ([7]; first compound 0.253 µM): 0.561 | relative viability ([7]; first compound 0.8 µM): 0.434 | relative viability ([7]; first compound 2.53 µM): 0.263 | relative viability ([7]; first compound 8 µM): 0.365 | relative viability ([8]; first compound 0.08 µM): 0.534 | relative viability ([8]; first compound 0.253 µM): 0.603 | relative viability ([8]; first compound 0.8 µM): 0.597 | relative viability ([8]; first compound 2.53 µM): 0.514 | relative viability ([8]; first compound 8 µM): 0.487 | relative viability ([9]; first compound 0.08 µM): 0.582 | relative viability ([9]; first compound 0.253 µM): 0.551 | relative viability ([9]; first compound 0.8 µM): 0.524 | relative viability ([9]; first compound 2.53 µM): 0.29 | relative viability ([9]; first compound 8 µM): 0.381

O=c1cc(N2CCOCC2)oc2c(-c3cccc4c3sc3ccccc34)cccc12 + N=C(N)NC(=N)NCCc1ccccc1 [Phenformin] (partner 250 µM)
relative viability ([1]; first compound 0.01 µM): 0.565 | relative viability ([1]; first compound 0.03162 µM): 0.619 | relative viability ([1]; first compound 0.1 µM): 0.324 | relative viability ([1]; first compound 0.3162 µM): 0.585 | relative viability ([1]; first compound 1 µM): 0.545 | relative viability ([2]; first compound 0.01 µM): 0.471 | relative viability ([2]; first compound 0.03162 µM): 0.504 | relative viability ([2]; first compound 0.1 µM): 0.487 | relative viability ([2]; first compound 0.3162 µM): 0.492 | relative viability ([2]; first compound 1 µM): 0.464 | relative viability ([3]; first compound 0.01 µM): 0.31 | relative viability ([3]; first compound 0.03162 µM): 0.294 | relative viability ([3]; first compound 0.1 µM): 0.315 | relative viability ([3]; first compound 0.3162 µM): 0.313 | relative viability ([3]; first compound 1 µM): 0.341 | relative viability ([4]; first compound 0.01 µM): 0.379 | relative viability ([4]; first compound 0.03162 µM): 0.379 | relative viability ([4]; first compound 0.1 µM): 0.403 | relative viability ([4]; first compound 0.3162 µM): 0.388 | relative viability ([4]; first compound 1 µM): 0.352 | relative viability ([5]; first compound 0.01 µM): 0.201 | relative viability ([5]; first compound 0.03162 µM): 0.143 | relative viability ([5]; first compound 0.1 µM): 0.0905 | relative viability ([5]; first compound 0.3162 µM): 0.167 | relative viability ([5]; first compound 1 µM): 0.183 | relative viability ([6]; first compound 0.01 µM): 0.352 | relative viability ([6]; first compound 0.03162 µM): 0.316 | relative viability ([6]; first compound 0.1 µM): 0.353 | relative viability ([6]; first compound 0.3162 µM): 0.36 | relative viability ([6]; first compound 1 µM): 0.336 | relative viability ([7]; first compound 0.01 µM): 0.352 | relative viability ([7]; first compound 0.03162 µM): 0.48 | relative viability ([7]; first compound 0.1 µM): 0.346 | relative viability ([7]; first compound 0.3162 µM): 0.449 | relative viability ([7]; first compound 1 µM): 0.362 | relative viability ([8]; first compound 0.01 µM): 0.519 | relative viability ([8]; first compound 0.03162 µM): 0.629 | relative viability ([8]; first compound 0.1 µM): 0.607 | relative viability ([8]; first compound 0.3162 µM): 0.575 | relative viability ([8]; first compound 1 µM): 0.547 | relative viability ([9]; first compound 0.01 µM): 0.593 | relative viability ([9]; first compound 0.03162 µM): 0.404 | relative viability ([9]; first compound 0.1 µM): 0.573 | relative viability ([9]; first compound 0.3162 µM): 0.38 | relative viability ([9]; first compound 1 µM): 0.361

COc1nc(C)cnc1NS(=O)(=O)c1cccnc1-c1ccc(-c2nnco2)cc1 [Zibotentan] + N=C(N)NC(=N)NCCc1ccccc1 [Phenformin] (partner 250 µM)
relative viability ([1]; first compound 0.08 µM): 0.592 | relative viability ([1]; first compound 0.8 µM): 0.626 | relative viability ([1]; first compound 2.53 µM): 0.564 | relative viability ([2]; first compound 0.08 µM): 0.494 | relative viability ([2]; first compound 0.253 µM): 0.469 | relative viability ([2]; first compound 0.8 µM): 0.542 | relative viability ([2]; first compound 2.53 µM): 0.481 | relative viability ([3]; first compound 0.08 µM): 0.38 | relative viability ([3]; first compound 0.253 µM): 0.39 | relative viability ([3]; first compound 0.8 µM): 0.397 | relative viability ([3]; first compound 2.53 µM): 0.348 | relative viability ([4]; first compound 0.08 µM): 0.361 | relative viability ([4]; first compound 0.253 µM): 0.396 | relative viability ([4]; first compound 0.8 µM): 0.381 | relative viability ([4]; first compound 2.53 µM): 0.492 | relative viability ([5]; first compound 0.08 µM): 0.184 | relative viability ([5]; first compound 0.253 µM): 0.136 | relative viability ([5]; first compound 0.8 µM): 0.183 | relative viability ([5]; first compound 2.53 µM): 0.135 | relative viability ([6]; first compound 0.08 µM): 0.318 | relative viability ([6]; first compound 0.253 µM): 0.291 | relative viability ([6]; first compound 0.8 µM): 0.312 | relative viability ([6]; first compound 2.53 µM): 0.346 | relative viability ([7]; first compound 0.08 µM): 0.454 | relative viability ([7]; first compound 0.8 µM): 0.516 | relative viability ([7]; first compound 2.53 µM): 0.428 | relative viability ([8]; first compound 0.08 µM): 0.602 | relative viability ([8]; first compound 0.253 µM): 0.482 | relative viability ([8]; first compound 0.8 µM): 0.554 | relative viability ([8]; first compound 2.53 µM): 0.609 | relative viability ([9]; first compound 0.08 µM): 0.354 | relative viability ([9]; first compound 0.253 µM): 0.403 | relative viability ([9]; first compound 0.8 µM): 0.467 | relative viability ([9]; first compound 2.53 µM): 0.59
